The text below walks through data of patent US20070275962A1, “Heterobicyclic Compounds as Pharmaceutically Active Agents” (GPC BIOTECH AG, priority 2003, published 2007).

In general, melting point refers to the temperature, or range, at which the solid turns liquid. By IC50 is commonly meant the concentration that inhibits the measured activity by half.

Structures can show the parent of a compound that is named as a salt.

The target in one data set is T1, Jnk1a1 HIS (Homo sapiens, UniProt P45983).
T1 construct: His
Put plainly: General kinase assay: Jnk1a1. The format is biochemical. The settings on record: concentration 10 μM; read-out: Inhibitory effect on Target Jnk1a1 HIS. Here is the method: (§1) General Assay Protocol for all Kinases [[[…]]] [[[…]]] Reaction Buffer: Final Assay Concentrations: [[[…]]] Pipetting Sequence: • 1) Add 8 μl 50 μM MBP in Reaction Buffer to each well of Assay Plate • 2) Add 10 μl 500 mM EDTA in H2O to C- wells • 3) Add 8 μl 62.5 μCi/ml Adenosine 5'-[γ-^33P]triphosphate+5 μM ATP in Reaction Buffer to each well • 4) Add 8 μl 5 fold concentrated inhibitor in 5% DMSO in Reaction Buffer to each well except to C- and C+ wells • 5) Add 8 μl 5% DMSO in Reaction Buffer to C- and C+ wells • 6) Add 8 μl 5 fold concentrated kinase in Reaction Buffer to each well • 7) Incubate 1 hr at room temperature • 8) Add 10 μl 50 mM EDTA in H2O to each well except to C- wells • 9) Prepare MAPH plates by adding 200 μl 0.75% H3PO4 to each well • 10) Exhaust 0.75% H3PO4 using Millipore vacuum station • 11) Add 60 μl 0.75% H3PO4 to each well of MAPH Filter Plate • 12) Transfer 30 μl sample per well from Assay Plate to corresponding well of MAPH Filter Plate • 13) Incubate 30 min at room temperature • 14) Wash each well of MAPH Filter Plates 3× with 200 μl 0.75% H3PO4 using Millipore vacuum station • 15) Add 20 μl Szintilation Liquid to each well of MAPH Filter Plate • 16) Seal MAPH Filter Plate • 17) Store MAPH Filter Plate 30 min in darkness • 18) Quantify radioactivity

The next data set addresses T2, cMet GST-HIS (Homo sapiens, UniProt P08581).
T2 construct: GST; His
Description: General kinase assay: cMet. The format is biochemical. The settings on record: concentration 10 μM; read-out: Inhibitory effect on Target cMet GST-HIS. The method, then: as §1

Another data set has as its target T3, CK1-alpha GST (Homo sapiens, UniProt P48729).
T3 construct: GST
Description: General kinase assay: CK1-alpha. In kind it is biochemical. The settings on record: concentration 10 μM; read-out: Inhibitory effect on Target CK1-alpha GST. The method, then: as §1

For a further data set, the target named is T4, SRPK1 GST (Homo sapiens, UniProt Q96SB4).
T4 construct: GST
T4 sequence (Q96SB4 whole entry): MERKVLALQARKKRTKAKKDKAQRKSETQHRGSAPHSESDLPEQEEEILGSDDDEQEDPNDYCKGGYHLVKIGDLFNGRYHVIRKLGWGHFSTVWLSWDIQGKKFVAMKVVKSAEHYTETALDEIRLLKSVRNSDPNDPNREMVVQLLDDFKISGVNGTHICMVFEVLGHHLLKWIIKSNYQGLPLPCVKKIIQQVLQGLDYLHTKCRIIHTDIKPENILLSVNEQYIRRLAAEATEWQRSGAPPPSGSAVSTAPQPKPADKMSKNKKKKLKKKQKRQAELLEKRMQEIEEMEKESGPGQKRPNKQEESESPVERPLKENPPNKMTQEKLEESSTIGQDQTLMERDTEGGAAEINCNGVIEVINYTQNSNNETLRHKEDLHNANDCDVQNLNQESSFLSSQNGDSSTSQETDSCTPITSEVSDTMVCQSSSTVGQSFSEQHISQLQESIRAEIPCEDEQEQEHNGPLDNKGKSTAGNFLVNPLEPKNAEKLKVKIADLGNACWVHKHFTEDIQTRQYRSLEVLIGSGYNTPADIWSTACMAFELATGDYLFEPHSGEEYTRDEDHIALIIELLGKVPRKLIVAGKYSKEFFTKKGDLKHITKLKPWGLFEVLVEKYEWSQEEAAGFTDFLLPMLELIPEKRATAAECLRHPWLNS
Put plainly: General kinase assay: SRPK1. In kind it is biochemical. The settings on record: concentration 10 μM; read-out: Inhibitory effect on Target SRPK1 GST. The method, then:
as §1

Another data set addresses T5, EGFR GST-HIS (Homo sapiens, UniProt P00533).
T5 construct: GST; His
Description: General kinase assay: EGFR. In kind it is biochemical. To be noted: concentration 10 μM; read-out: Inhibitory effect on Target EGFR GST-HIS. Here is the method: as §1

Another data set concerns the target T6, PDGFRbeta GST (Homo sapiens, UniProt P09619).
T6 construct: GST
Description: General kinase assay: PDGFRbeta. The format is biochemical. The settings on record: concentration 10 μM; read-out: Inhibitory effect on Target PDGFRbeta GST. Here is the method:
as §1

A further data set concerns the target T7, RICK-STREP 1 (Homo sapiens, UniProt O43353).
T7 construct: Strep
Put plainly: General kinase assay: RICK. The format is biochemical. To be noted: concentration 10 μM; read-out: Inhibitory effect on Target RICK-STREP 1. The method, then:
as §1

The next data set concerns p70S6K HIS. Description: General kinase assay: p70S6K. To be noted: concentration 10 μM. The format is biochemical. The method, then: as §1
In a further data set the target is T8, GSK-3beta HIS (Homo sapiens, UniProt P49841).
T8 construct: His
T8 sequence (P49841 whole entry): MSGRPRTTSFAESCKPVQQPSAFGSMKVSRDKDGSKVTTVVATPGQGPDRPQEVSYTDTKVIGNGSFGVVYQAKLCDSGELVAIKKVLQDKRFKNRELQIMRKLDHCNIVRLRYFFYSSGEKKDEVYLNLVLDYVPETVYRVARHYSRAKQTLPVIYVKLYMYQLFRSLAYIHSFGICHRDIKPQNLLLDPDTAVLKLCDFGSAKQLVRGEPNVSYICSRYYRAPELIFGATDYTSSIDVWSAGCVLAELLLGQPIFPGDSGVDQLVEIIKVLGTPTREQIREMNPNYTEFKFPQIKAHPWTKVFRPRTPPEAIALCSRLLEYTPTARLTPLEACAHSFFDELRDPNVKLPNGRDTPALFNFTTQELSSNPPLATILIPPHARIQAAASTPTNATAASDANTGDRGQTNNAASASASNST
Put plainly: General kinase assay: GSK-3beta. To be noted: concentration 10 μM; read-out: Inhibitory effect on Target GSK-3beta HIS. The format is biochemical. The method, then: as §1

The target of data set [1] is T9, mycobacterial protein kinase G (PknG) (Mycobacterium tuberculosis, UniProt P9WI73).
T9 construct: GST; made in house; host or cells: E. coli BL21
T9 sequence (P9WI73 whole entry): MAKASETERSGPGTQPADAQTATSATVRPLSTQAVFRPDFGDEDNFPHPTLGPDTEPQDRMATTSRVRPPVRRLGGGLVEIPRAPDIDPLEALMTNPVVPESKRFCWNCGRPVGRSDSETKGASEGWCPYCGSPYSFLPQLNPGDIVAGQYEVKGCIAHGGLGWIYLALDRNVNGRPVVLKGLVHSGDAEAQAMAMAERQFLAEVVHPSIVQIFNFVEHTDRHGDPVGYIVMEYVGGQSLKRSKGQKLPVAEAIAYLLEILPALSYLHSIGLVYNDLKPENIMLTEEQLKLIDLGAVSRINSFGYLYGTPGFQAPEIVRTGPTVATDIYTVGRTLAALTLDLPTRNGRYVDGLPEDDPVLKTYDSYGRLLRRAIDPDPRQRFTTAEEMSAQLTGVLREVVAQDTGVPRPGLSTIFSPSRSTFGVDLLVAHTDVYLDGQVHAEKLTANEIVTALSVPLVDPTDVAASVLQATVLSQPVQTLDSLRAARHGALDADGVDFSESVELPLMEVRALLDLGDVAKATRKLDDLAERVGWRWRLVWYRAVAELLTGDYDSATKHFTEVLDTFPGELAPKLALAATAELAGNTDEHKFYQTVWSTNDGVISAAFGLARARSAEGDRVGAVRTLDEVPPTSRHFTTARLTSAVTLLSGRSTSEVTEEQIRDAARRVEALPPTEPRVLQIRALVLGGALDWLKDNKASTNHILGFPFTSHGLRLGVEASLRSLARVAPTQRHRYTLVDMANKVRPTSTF
Description: biochemical. The settings on record: read-out: Inhibition of PknG (IC50, [μM]).

A further data set deals with CDK2/CycA (Homo sapiens, UniProt P24941). Description: General kinase assay: CDK2/CycA. The settings on record: concentration 10 μM; read-out: Inhibitory effect on Target CDK2/CycA. The format is biochemical. The method, then: as §1
Another data set concerns the target T10, Kit human GST (Homo sapiens, UniProt P10721).
T10 construct: GST
Put plainly: General kinase assay: Kit. The settings on record: concentration 10 μM; read-out: Inhibitory effect on Target Kit human GST. The format is biochemical. The method, then:
as §1

The next data set deals with T11, c-Src HIS (Homo sapiens, UniProt P12931).
T11 construct: His
Put plainly: General kinase assay: c-Src. In kind it is biochemical. To be noted: concentration 10 μM; read-out: Inhibitory effect on Target c-Src HIS. The method, then: as §1

In a further data set the target is T12, IKKbeta HIS (Homo sapiens, UniProt O14920).
T12 construct: His
T12 sequence (O14920 1-756): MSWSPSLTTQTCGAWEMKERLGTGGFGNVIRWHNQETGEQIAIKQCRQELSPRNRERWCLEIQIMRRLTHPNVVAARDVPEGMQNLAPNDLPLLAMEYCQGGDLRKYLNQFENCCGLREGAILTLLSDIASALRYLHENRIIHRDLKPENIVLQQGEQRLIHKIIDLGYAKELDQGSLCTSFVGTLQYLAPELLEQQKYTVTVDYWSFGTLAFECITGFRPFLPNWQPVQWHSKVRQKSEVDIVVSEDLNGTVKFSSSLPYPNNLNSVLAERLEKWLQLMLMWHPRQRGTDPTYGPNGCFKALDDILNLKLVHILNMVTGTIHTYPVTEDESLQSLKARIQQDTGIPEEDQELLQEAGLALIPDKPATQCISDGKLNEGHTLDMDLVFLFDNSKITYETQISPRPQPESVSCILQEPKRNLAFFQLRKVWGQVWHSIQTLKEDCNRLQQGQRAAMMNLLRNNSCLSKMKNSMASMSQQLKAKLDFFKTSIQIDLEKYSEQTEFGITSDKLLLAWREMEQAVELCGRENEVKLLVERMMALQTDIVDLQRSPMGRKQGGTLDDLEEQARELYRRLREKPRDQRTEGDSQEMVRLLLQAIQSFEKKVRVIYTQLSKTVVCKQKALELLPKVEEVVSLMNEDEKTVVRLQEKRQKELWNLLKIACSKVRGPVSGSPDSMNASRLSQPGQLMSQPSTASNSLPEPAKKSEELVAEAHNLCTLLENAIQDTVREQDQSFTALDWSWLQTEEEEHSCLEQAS
Description: General kinase assay: IKKbeta. In kind it is biochemical. The settings on record: concentration 10 μM; read-out: Inhibitory effect on Target IKKbeta HIS. Here is the method:
as §1

T7 sequence (O43353 whole entry): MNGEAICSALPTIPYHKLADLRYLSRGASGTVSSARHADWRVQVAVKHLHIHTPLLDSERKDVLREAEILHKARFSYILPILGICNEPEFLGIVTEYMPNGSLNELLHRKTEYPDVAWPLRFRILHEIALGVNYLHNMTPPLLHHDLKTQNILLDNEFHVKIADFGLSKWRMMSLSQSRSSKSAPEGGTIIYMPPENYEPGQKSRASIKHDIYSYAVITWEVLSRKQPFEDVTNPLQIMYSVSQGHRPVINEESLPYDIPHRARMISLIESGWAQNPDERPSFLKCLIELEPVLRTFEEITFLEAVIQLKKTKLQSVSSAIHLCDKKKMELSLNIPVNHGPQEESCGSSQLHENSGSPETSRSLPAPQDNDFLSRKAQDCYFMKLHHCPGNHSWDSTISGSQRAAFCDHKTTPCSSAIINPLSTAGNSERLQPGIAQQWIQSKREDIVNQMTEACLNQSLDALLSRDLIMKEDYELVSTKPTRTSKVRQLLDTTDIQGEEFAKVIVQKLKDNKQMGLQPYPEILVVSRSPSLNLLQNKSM
T3 sequence (P48729 whole entry): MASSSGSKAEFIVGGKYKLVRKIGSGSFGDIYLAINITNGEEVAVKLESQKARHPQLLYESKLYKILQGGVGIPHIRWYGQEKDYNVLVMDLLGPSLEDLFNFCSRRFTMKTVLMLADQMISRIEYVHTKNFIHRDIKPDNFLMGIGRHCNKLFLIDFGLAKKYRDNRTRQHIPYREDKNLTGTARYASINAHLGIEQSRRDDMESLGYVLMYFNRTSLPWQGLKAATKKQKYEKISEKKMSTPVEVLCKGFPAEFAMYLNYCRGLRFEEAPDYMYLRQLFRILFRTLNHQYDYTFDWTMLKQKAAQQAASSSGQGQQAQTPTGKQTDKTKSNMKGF
T6 sequence (P09619 33-1106): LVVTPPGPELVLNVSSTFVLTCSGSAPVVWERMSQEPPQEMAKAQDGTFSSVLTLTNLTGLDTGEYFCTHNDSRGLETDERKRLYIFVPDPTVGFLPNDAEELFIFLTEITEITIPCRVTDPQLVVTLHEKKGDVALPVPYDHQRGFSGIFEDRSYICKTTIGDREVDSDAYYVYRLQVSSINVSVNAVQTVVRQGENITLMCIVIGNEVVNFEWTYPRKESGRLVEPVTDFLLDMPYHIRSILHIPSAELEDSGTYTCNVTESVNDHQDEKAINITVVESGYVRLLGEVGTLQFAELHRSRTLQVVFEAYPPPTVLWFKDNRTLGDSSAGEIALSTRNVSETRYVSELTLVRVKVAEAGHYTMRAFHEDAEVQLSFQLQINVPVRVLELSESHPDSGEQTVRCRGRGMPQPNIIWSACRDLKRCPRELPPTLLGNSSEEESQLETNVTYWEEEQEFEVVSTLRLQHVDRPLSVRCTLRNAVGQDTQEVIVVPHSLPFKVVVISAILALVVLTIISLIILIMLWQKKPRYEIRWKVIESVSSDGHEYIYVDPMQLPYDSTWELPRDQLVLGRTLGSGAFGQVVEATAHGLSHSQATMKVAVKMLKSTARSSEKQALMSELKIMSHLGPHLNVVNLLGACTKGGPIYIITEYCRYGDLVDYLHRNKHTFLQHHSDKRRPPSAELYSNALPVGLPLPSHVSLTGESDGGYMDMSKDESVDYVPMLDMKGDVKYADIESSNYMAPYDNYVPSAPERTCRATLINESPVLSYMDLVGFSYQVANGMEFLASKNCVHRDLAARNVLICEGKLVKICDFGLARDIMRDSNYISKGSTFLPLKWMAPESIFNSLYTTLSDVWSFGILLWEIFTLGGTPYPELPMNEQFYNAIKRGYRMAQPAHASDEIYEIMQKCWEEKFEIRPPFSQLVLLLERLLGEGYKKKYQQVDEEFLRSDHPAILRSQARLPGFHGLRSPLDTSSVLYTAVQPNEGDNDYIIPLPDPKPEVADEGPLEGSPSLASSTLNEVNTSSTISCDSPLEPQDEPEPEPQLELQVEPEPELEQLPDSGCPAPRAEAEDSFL
T5 sequence (P00533 25-1210): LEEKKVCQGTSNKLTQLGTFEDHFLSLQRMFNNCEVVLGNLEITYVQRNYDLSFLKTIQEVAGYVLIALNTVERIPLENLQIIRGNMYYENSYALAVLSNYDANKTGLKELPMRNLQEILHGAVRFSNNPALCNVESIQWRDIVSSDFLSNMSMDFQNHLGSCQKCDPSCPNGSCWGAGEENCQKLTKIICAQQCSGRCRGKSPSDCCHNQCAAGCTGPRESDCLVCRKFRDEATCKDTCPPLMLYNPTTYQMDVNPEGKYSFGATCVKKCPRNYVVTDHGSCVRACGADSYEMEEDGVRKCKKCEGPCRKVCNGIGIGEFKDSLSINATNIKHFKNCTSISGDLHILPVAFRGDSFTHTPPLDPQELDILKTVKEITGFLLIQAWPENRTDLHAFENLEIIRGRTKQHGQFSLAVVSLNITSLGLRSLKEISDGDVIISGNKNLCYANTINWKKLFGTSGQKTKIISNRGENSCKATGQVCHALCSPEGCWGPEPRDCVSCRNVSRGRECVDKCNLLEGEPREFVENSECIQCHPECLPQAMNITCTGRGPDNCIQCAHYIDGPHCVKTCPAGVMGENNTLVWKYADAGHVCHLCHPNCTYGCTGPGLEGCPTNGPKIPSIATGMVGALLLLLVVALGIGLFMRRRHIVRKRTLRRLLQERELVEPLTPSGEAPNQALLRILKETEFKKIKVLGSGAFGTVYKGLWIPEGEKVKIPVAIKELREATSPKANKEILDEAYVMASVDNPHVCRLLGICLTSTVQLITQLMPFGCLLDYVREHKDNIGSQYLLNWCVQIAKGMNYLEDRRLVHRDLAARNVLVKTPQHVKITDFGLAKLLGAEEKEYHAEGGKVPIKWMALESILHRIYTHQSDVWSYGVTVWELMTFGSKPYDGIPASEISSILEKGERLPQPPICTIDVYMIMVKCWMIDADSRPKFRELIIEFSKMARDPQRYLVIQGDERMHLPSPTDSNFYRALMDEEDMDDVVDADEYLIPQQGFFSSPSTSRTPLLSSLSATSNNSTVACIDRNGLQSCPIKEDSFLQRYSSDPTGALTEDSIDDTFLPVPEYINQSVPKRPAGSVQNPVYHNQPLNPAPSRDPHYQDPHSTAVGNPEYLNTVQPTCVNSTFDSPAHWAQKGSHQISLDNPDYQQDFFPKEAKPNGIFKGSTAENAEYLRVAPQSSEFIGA

With `NC(=O)c1c(NC(=O)Nc2ccccc2)sc2c1CCC1(C2)OCCO1` (as salt: HCl) [Compound D199, 2-[(Anilinocarbonyl)amino]-4,7-dihydro-5H-spiro[1-benzothiophene-6,2′-[1,3]dioxolane]-3-carboxamide], the melting point lay in the range of 212 to 213 °C.
In the case of `NC(=O)c1c(NC(=O)C2CC2)sc2c(O)c(Br)ccc12` [Compound A15, 6-Bromo-2-(cyclopropanecarbonyl-amino)-7-hydroxy-benzo[b]thiophene-3-carboxylic acid amide], the inhibition at 10 µM at Jnk1a1 HIS, on cMet GST-HIS, on CK1-alpha GST, at SRPK1 GST, at EGFR GST-HIS and at PDGFRbeta GST was above 50% in each case. In addition, the inhibition at 10 µM on RICK-STREP 1 and on GSK-3beta HIS was above 50% each time. Further, the “Inhibitory effect on Target p70S6K HIS” value in the data set with p70S6K HIS was “+ (+ = >50% inhibition at concentration 10 μM)”.
For `NC(=O)c1c(NC(=O)C2CC2)sc2c(Cl)c(OCCO)c(Cl)cc12` [Compound A49, 5,7-Dichloro-2-(cyclopropanecarbonyl-amino)-6-(2-hydroxyethoxy)-benzo[b]thiophene-3-carboxylic acid amide], the melting point fell in the range of 250 to 254 °C.
Take `CCOC(=O)Nc1sc2c(Cl)c(O)c(Cl)cc2c1C(N)=O` [Compound A120, (3-Carbamoyl-5,7-dichloro-6-hydroxy-benzo[b]thiophen-2-yl)-carbamic acid ethyl ester]: the melting point was 235 to 240 °C.
Take `NC(=O)c1c(NC(=O)Nc2ccncc2)sc2c1CCOC2` [Compound B73, 2-(3-Pyridin-4-yl-ureido]-4,7-dihydro-5H-thieno[2,3-c]pyran-3-carboxylic acid amide]: the inhibition at 10 µM on CK1-alpha GST, at SRPK1 GST and at RICK-STREP 1 was above 50% in each case.
Consider `NC(=O)c1c(NC(=O)Nc2ccc(F)cc2)sc2c1CCSC2` [Compound C45, 2-[3-(4-Fluoro-phenyl)-ureido]-4,7-dihydro-5H-thieno[2,3-c]thiopyran-3-carboxylic acid amide], for which, in [1], the IC50 was 0.1 to 1 µM. The inhibition at 10 µM on SRPK1 GST, at PDGFRbeta GST, at CDK2/CycA, at RICK-STREP 1 and at GSK-3beta HIS was above 50% throughout.
As for `NC(=O)c1c(NC(=O)C2CC2)sc2c1CCC(Br)(Br)C2=O` [Compound D67, 6,6-Dibromo-2-(cyclopropanecarbonyl-amino)-7-oxo-4,5,6,7-tetrahydro-benzo[b]thiophene-3-carboxylic acid amide], the IC50 in [1] lay within 0.1 to 1 µM. Moreover, the inhibition at 10 µM at cMet GST-HIS, at CK1-alpha GST, on SRPK1 GST, on EGFR GST-HIS, at CDK2/CycA and at RICK-STREP 1 was above 50% each time. On GSK-3beta HIS, the inhibition at 10 µM is above 50%.
Regarding `NS(=O)(=O)c1c(NC(=O)C2CC2)sc2c1CCCC2` [Compound D86, Cyclopropanecarboxylic acid (3-sulfamoyl-4,5,6,7-tetrahydro-benzo[b]thiophen-2-yl)-amide], the melting point is 235 to 238 °C (dec.).
Turning to `NN=C1CCc2c(sc(NC(=O)C3CC3)c2C(N)=O)C1` [Compound D115, 2-(Cyclopropanecarbonyl-amino)-6-hydrazono-4,5,6,7-tetrahydro-benzo[b]thiophene-3-carboxylic acid amide], the IC50 in data set [1] was 0.1 to 1 µM. The inhibition at 10 µM on CK1-alpha GST, at EGFR GST-HIS, on PDGFRbeta GST, at Kit human GST, at CDK2/CycA and on RICK-STREP 1 was above 50% throughout. Also, the inhibition at 10 µM at GSK-3beta HIS is above 50%.
For the compound `NC(=O)c1c(NC(=O)Nc2ccc(F)cc2)sc2c1CCC(=O)C2` [Compound D121, 2-[3-(4-Fluoro-phenyl)-ureido]-6-oxo-4,5,6,7-tetrahydro-benzo[b]thiophene-3-carboxylic acid amide], the inhibition at 10 µM at CK1-alpha GST, at SRPK1 GST, at EGFR GST-HIS, at c-Src HIS, on CDK2/CycA and on RICK-STREP 1 was above 50% throughout. At GSK-3beta HIS, the inhibition at 10 µM was above 50%.
Turning to `NC(=O)c1c(NC(=O)C2CC2)sc2c1CCC(=NO)C2` [Compound D134, 2-(Cyclopropanecarbonyl-amino)-6-hydroxyimino-4,5,6,7-tetrahydro-benzo[b]thiophene-3-carboxylic acid amide], the inhibition at 10 µM at CK1-alpha GST, on RICK-STREP 1 and on GSK-3beta HIS was above 50% in each case.
Consider `NC(=O)c1c(NC(=O)Nc2ccc(F)cc2)sc2c1CCC(O)C2` (stereo not shown) [Compound D142, 2-[3-(4-Fluoro-phenyl)-ureido]-6-hydroxy-4,5,6,7-tetrahydro-benzo[b]thiophene-3-carboxylic acid amide], for which the inhibition at 10 µM at CK1-alpha GST, at SRPK1 GST, on c-Src HIS, at IKKbeta HIS, on CDK2/CycA and on RICK-STREP 1 was above 50% throughout.
Turning to `O=C(Nc1sc2c(c1S(=O)(=O)O)CCCC2)C1CC1` [Compound D216, 2-(Cyclopropanecarbonyl-amino)-4,5,6,7-tetrahydro-benzo[b]thiophene-3-sulfonic acid], the melting point was 225 to 230 °C (dec.).
